Assay results published in article PMC9508125, “The evolutionary advantage of an aromatic clamp in plant family 3 glycoside exo-hydrolases” (Nature Communications, 2022).
Positions count from the first letter of the chain named.

Columns and labels:
Experiment in all cases: Relative rates of hydrolysis of poly-, oligosaccharides and aryl-glycosides
Type in all cases: biochemical
Details in all cases: substance is the substrate, nd = activity not detected
[1] = target: T1, HvExoI W286F/W434A mutant (Hordeum vulgare, UniProt Q9XEI3, W311F/W459A)
T1 sequence (Q9XEI3 26-630 W311F/W459A): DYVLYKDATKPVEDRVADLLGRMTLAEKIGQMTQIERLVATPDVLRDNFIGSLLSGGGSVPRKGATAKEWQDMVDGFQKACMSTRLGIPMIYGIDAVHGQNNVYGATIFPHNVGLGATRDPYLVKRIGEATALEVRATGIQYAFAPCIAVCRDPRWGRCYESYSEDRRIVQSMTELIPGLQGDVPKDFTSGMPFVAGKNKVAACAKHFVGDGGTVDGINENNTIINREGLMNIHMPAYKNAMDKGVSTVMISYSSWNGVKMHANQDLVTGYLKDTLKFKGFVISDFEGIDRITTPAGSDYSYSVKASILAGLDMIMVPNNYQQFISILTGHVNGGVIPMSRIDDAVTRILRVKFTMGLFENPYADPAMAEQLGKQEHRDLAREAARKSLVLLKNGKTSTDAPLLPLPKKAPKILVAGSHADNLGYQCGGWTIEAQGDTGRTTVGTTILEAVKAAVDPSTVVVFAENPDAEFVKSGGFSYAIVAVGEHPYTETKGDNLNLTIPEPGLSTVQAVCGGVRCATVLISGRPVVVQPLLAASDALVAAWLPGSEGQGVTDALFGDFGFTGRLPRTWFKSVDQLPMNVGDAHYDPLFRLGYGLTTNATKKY
Method: (§1) Dependency of activities of WT and mutant HvExoI on pH (McIlvaine buffers in the pH range of 3.5–8.5 at 30 °C) and temperature (100 mM sodium acetate buffer, pH 5.25, temperature range 0–80 °C, 15 min incubations) were determined using 0.2% (w/v) 4NP-Glc[21],[59]. Relative rates of hydrolysis of β-linked poly-, oligosaccharides, and aryl-glucosides were determined using near-homogenous HvExoI at 50 pmoles. […] Kinetic parameters were calculated from the analyses of Michaelis-Menten plots with Grafit 7.0.3[62] and processed by a proportional weighted fit, using nonlinear regression. The relative rates of hydrolysis, kinetic, and inhibition data were rounded to one or two decimal points (Supplementary Tables 2–4).

[2] = target: T2, HvExoI W286F/W434F mutant (Hordeum vulgare, UniProt Q9XEI3, W311F/W459F)
T2 sequence (Q9XEI3 26-630 W311F/W459F): T1 sequence (Q9XEI3 26-630 W311F/W459A) with A434F
Method: as §1

HvExoI W286Y mutant = target: T3, HvExoI W286Y mutant (Hordeum vulgare, UniProt Q9XEI3, W311Y)
T3 sequence (Q9XEI3 26-630 W311Y): T1 sequence (Q9XEI3 26-630 W311F/W459A) with F286Y, A434W
Method: as §1

HvExoI W434F mutant = target: T4, HvExoI W434F mutant (Hordeum vulgare, UniProt Q9XEI3, W459F)
T4 sequence (Q9XEI3 26-630 W459F): T1 sequence (Q9XEI3 26-630 W311F/W459A) with F286W, A434F
Method: as §1

Structure (SMILES)	Activity (relative rate of hydrolysis) [1] [μmole/min per mg protein]	Activity (relative rate of hydrolysis) [2] [μmole/min per mg protein]	Activity (relative rate of hydrolysis) (HvExoI W286Y mutant) [μmole/min per mg protein]	Activity (relative rate of hydrolysis) (HvExoI W434F mutant) [μmole/min per mg protein]
O=[N+]([O-])c1ccc(O[C@@H]2O[C@H](CO)[C@@H](O)[C@H](O)[C@H]2O)cc1 [4NP-Glc, 4-nitrophenyl β-D-glucopyranoside]	1.8 ± 0.03	0.5 ± 0.02	19.6 ± 0.01	5.0 ± 0.01
OC[C@H]1O[C@@H](O[C@H]2[C@H](O)[C@@H](O)[C@H](O[C@H]3[C@H](O)[C@@H](O)[C@H](O[C@H]4[C@H](O)[C@@H](O)[C@H](O[C@H]5[C@H](O)[C@@H](O)[C@H](O[C@H]6[C@H](O)[C@@H](O)C(O)O[C@@H]6CO)O[C@@H]5CO)O[C@@H]4CO)O[C@@H]3CO)O[C@@H]2CO)[C@H](O)[C@@H](O)[C@@H]1O (stereo partly shown) [Cellohexaose]	0.01 ± 0.0002	0.01 ± 0.001	7.0 ± 0.1	1.9 ± 0.1
OC[C@H]1O[C@@H](O[C@H]2[C@H](O)[C@@H](O)[C@H](O[C@H]3[C@H](O)[C@@H](O)[C@H](O[C@H]4[C@H](O)[C@@H](O)[C@H](O[C@H]5[C@H](O)[C@@H](O)C(O)O[C@@H]5CO)O[C@@H]4CO)O[C@@H]3CO)O[C@@H]2CO)[C@H](O)[C@@H](O)[C@@H]1O (stereo partly shown) [Cellopentaose]	0.01 ± 0.0003	0.02 ± 0.001	5.8 ± 0.2	1.7 ± 0.1
OC[C@H]1O[C@@H](O[C@H]2[C@H](O)[C@@H](O)[C@H](O[C@H]3[C@H](O)[C@@H](O)[C@H](O[C@H]4[C@H](O)[C@@H](O)C(O)O[C@@H]4CO)O[C@@H]3CO)O[C@@H]2CO)[C@H](O)[C@@H](O)[C@@H]1O (stereo partly shown) [Cellotetraose]	0.1 ± 0.01	0.02 ± 0.001	6.3 ± 1.1	1.9 ± 0.1
OC[C@H]1O[C@@H](O[C@H]2[C@H](O)[C@@H](O)[C@H](O[C@H]3[C@H](O)[C@@H](O)C(O)O[C@@H]3CO)O[C@@H]2CO)[C@H](O)[C@@H](O)[C@@H]1O (stereo partly shown) [Cellotriose]	0.01 ± 0.001	0.02 ± 0.002	5.6 ± 0.1	1.2 ± 0.3
OC[C@H]1O[C@@H](O[C@H]2[C@H](O)[C@@H](CO)OC(O)[C@@H]2O)[C@H](O)[C@@H](O)[C@@H]1O (stereo partly shown) [Laminaribiose]	0.1 ± 0.001	0.5 ± 0.1	13.9 ± 0.1	14.9 ± 1.7
OC[C@H]1O[C@@H](O[C@@H]2[C@@H](O)[C@H](O[C@@H]3[C@@H](O)[C@H](O[C@@H]4[C@@H](O)[C@H](O[C@@H]5[C@@H](O)[C@H](O[C@@H]6[C@@H](O)[C@H](O[C@@H]7[C@@H](O)[C@H](O)O[C@H](CO)[C@H]7O)O[C@H](CO)[C@H]6O)O[C@H](CO)[C@H]5O)O[C@H](CO)[C@H]4O)O[C@H](CO)[C@H]3O)O[C@H](CO)[C@H]2O)[C@H](O)[C@@H](O)[C@@H]1O [Laminariheptaose]	0.1 ± 0.004	0.5 ± 0.04	14.5 ± 2.0	13.5 ± 0.4
OC[C@H]1O[C@@H](O[C@@H]2[C@@H](O)[C@H](O[C@@H]3[C@@H](O)[C@H](O[C@@H]4[C@@H](O)[C@H](O[C@@H]5[C@@H](O)[C@H](O[C@H]6[C@H](O)[C@@H](CO)OC(O)[C@@H]6O)O[C@H](CO)[C@H]5O)O[C@H](CO)[C@H]4O)O[C@H](CO)[C@H]3O)O[C@H](CO)[C@H]2O)[C@H](O)[C@@H](O)[C@@H]1O (stereo partly shown) [Laminarihexaose]	0.1 ± 0.004	0.5 ± 0.1	15.8 ± 0.1	15.8 ± 1.0
OC[C@H]1O[C@@H](O[C@@H]2[C@@H](O)[C@H](O[C@@H]3[C@@H](O)[C@H](O[C@@H]4[C@@H](O)[C@H](O[C@@H]5[C@@H](O)[C@H](O)O[C@H](CO)[C@H]5O)O[C@H](CO)[C@H]4O)O[C@H](CO)[C@H]3O)O[C@H](CO)[C@H]2O)[C@H](O)[C@@H](O)[C@@H]1O [Laminaripentaose]	0.2 ± 0.02	0.4 ± 0.04	14.8 ± 0.4	14.6 ± 0.4
OC[C@H]1O[C@@H](O[C@@H]2[C@@H](O)[C@H](O[C@@H]3[C@@H](O)[C@H](O[C@H]4[C@H](O)[C@@H](CO)OC(O)[C@@H]4O)O[C@H](CO)[C@H]3O)O[C@H](CO)[C@H]2O)[C@H](O)[C@@H](O)[C@@H]1O (stereo partly shown) [Laminaritetraose]	0.2 ± 0.01	0.4 ± 0.04	13.8 ± 0.1	15.0 ± 1.5
